These results are taken from US20240293404A1, “SALT AND CRYSTAL FORMS OF AN EPIDERMAL GROWTH FACTOR RECEPTOR INHIBITOR” (Blueprint Medicines Corporation, priority 2021, published 2024).

Data set [1] can be described thus: Dynamic Vapor Sorption (DVS). It is filed as physicochemical. As to conditions: between 2 and 95% relative humidity at 25° C. On the procedure:
DVS was performed using a DVS Intrinsic 1. The sample (5-25 mg) was loaded into a sample pan, suspended from a microbalance and exposed to a humidified stream of nitrogen gas. The sample was held for a minimum of 5 min at each level and only progressed to the next humidity level if there was <0.002% change in weight between measurements (interval: 60 s) or 60 min had elapsed. The following program was used: • 1—Equilibration at 50% RH • 2—50% to 2%. (50%, 40%, 30%, 20%, 10%, and 2%) • 3—2% to 95% (2%, 10%, 20%, 30%, 40%, 50%, 60%, 70%, 80%, 90%, 95%) • 4—95% to 2% (95%, 80%, 70%, 60%, 50%, 40%, 30%, 20%, 10%, 2%) • 5—2% to 50% (2%, 10%, 20%, 30%, 40%, 50%)

The subject of a further data set is EGFR mutant NSCLC. Conditions: NSCLC patients; cited from earlier work.

In turn, `CO[C@@H]1CCN(c2nccc(Nc3cc4c(C(C)C)ccc(N5C[C@H](CS(C)(=O)=O)[C@H]5C)c4cn3)n2)C[C@@H]1F` [1:0.5 Compound (I) Semi-Succinate] displayed a DVS mass change in data set [1] of 7.1 wt. %.

In turn, `CO[C@@H]1CCN(c2nccc(Nc3cc4c(C(C)C)ccc(N5C[C@H](CS(C)(=O)=O)[C@H]5C)c4cn3)n2)C[C@@H]1F` [Compound (I) Freebase Form B] displayed a DVS mass change in data set [1] of 2.1 wt. %.

As to `C=CC(=O)Nc1cc(Nc2nccc(-c3cn(C)c4ccccc34)n2)c(OC)cc1N(C)CCN(C)C` [osimertinib], the “time within which resistance mediated by exon 20 C797 mutation (often C797S) usually develops” value with EGFR mutant NSCLC is on record as no more than 10 months.
